The nature of series [1]: Absorption and emission spectra of dyes D1-D3 and dye-loaded copolymers F1-F3. Format: physicochemical. From the text:
Measurements of Absorption and Emission Spectra. The target dye-loaded copolymers F1-F3 were then subjected to investigations of their spectroscopic properties in both organic solvents and aqueous solution. […] Attaching to the 120-kDa amphiphilic copolymer drastically enhances the water solubility of BODIPY D1 and chlorin D2 without strong perturbation on the spectroscopic properties. The emission band for F1 and F2 in water remains the same as the ones measured in organic solutions, showing minimal dye-dye interaction is involved in aqueous solution of F1 and F2 at μM concentration. […] This negative result may be because of the inappropriate size of the copolymer backbone. Larger polymers may be required to encapsulate large hydrophobic chromophores like the phthalocyanine D3.
General Methods. All chemicals obtained commercially were used as received unless otherwise noted. Reagent-grade solvents (CH2Cl2, THF, methanol) and HPLC-grade water were used as received. NMR data was measured in a solution of CDCl3 unless otherwise noted. Noncommercial compounds 1, 2, and 4 were prepared following literature procedures. Analytical SEC experiments were performed with PLgel 10000 Å SEC column, eluted with ACS grade THF (stablized with 400 ppm of BHT) at 35° C. with a flow rate at 1 mL/min. Samples were detected with Agilent 1260 infinity refractive index detector. Absorption spectra were measured on Agilent 8453 and Shimadzu UV1800 instruments using dilute […] solutions of the compound in UV transparent (e.g., quartz) cuvettes versus a solvent blank at room temperature.

For series [2] the following is noted: cited from earlier work.

In series [1] (in CH2Cl2, room temperature), `Cc1cc(C)c(-c2c3nc(c(-c4ccc(C(=O)NN)cc4)c4ccc(cc5nc(cc6ccc2[nH]6)CC5(C)C)[nH]4)C=C3)c(C)c1` [Polymer D2, 5-[4-(N-Aminocarbamoyl)phenyl]-10-Mesityl-18,18-dimethylchlorin] gave a λabs max of 640 nm.
Consider `CCCCCCCc1cc2c(cc1CCCCCCC)-c1nc-2nc2[nH]c(nc3nc(nc4[nH]c(n1)c1cc(CCCCCCC)c(CCCCCCC)cc41)-c1cc(C#Cc4ccc(CC(=O)NN)cc4)ccc1-3)c1cc(CCCCCCC)c(CCCCCCC)cc21` [Polymer D3, 2-[4-(N-Aminocarbamoyl)methylphenylethynyl]-9,10,16,17,23,24-hexaheptylphthalocyanine], for which the λabs max in series [1] (in toluene) stood at 702 nm.
In turn, `Cc1cc(C)c(C2=C3C=CC=[N+]3[B-](F)(F)n3cc(C#CCCCCC(=O)NN)cc32)c(C)c1` [Polymer D1, 2-[6-(N-Aminocarbamoyl)hex-1-yn-1-yl]-8-mesityl-4,4-difluoro-4-bora-3a,4a-diaza-s-indacene] had a λabs max in series [1] (in CH2Cl2, room temperature) of 543 nm.
Take `CCN(CC)c1ccc2c(c1)Oc1cc(N(CC)CC)ccc1C21c2ccccc2C(=O)N1N` [Rhodamine-B hydrazide]: the “change in absorption or fluorescence spectra” value in series [2] (only with Cu(II) and Hg(II) among the cations tested, aqueous solution) is “significant change in absorption or fluorescence spectra”. Also, the “Cu(II) concentration detected quantitatively” value in series [2] (selective detection of Cu(II) in aqueous solution) is 10^−7 M.

The record behind these values is US20220034873A1, “POLYMERIC CHROMOPHORES, COMPOSITIONS COMPRISING THE SAME, AND METHODS OF PREPARING AND USING THE SAME” (North Carolina State University, priority 2018, published 2022).
